For seven molecules, MIC results are on record in DBAASP.

What all share (experiment): ≥ marks a high value that may be exact or a test limit, other limits are often not marked, values filed in µg/mL are converted to µM
In assay [1] the test system is Pseudomonas syringae.
Assay [2] has as its system Streptococcus pyogenes GAS M1T1.
The test system of assay [3] is Xanthomonas axonopodis pv. phaseoli ATCC 9563.
For assay [4], the system named is Escherichia coli BL21.
For assay [5], the system named is Pseudomonas aeruginosa PAO1.
Assay [6] deals with Escherichia coli ATCC 25922.
The test system of assay [7] is Klebsiella pneumoniae KpC+001825971.
Assay [8] deals with Escherichia coli KpC+001812446.
Assay [9] concerns Klebsiella pneumoniae ATCC 13883.
Assay [10] relates to Pseudomonas aeruginosa ATCC 15442.
Assay [11] relates to Citrobacter sp.
Assay [12] concerns Acinetobacter baumannii ATCC 15308.
Assay [13] concerns Staphylococcus aureus ATCC 25923.
For assay [14], the system named is Staphylococcus aureus.
Assay [15] concerns Klebsiella pneumoniae.
Assay [16] concerns Streptococcus pneumoniae.
Assay [17] concerns Enterobacter cloacae.
Assay [18] relates to Candida albicans NCTC 3179.
The subject of assay [19] is Klebsiella pneumoniae ATCC 27736.
The subject of assay [20] is Candida parapsilosis ATCC 22019.
The subject of assay [21] is Staphylococcus aureus ATCC 33592.
Assay [22] relates to Bacillus subtilis ATCC 6633.
The test system of assay [23] is Escherichia coli ATCC 9637.
Assay [24] deals with Staphylococcus aureus ATCC 700699.
The subject of assay [25] is Pseudomonas aeruginosa ATCC BAA-427.
Assay [26] concerns Staphylococcus aureus ATCC 700698.
For assay [27], the system named is Cryptococcus neoformans.
Assay [28] has as its system Candida albicans ATCC 10231.
Assay [29] relates to Staphylococcus aureus ATCC BAA-44.
The test system of assay [30] is Staphylococcus aureus ATCC 29213.

Values after ≈ are worked out from the molar mass of the structure shown. Values joined by “and” are separate entries in the source; they are usually repeats but may differ in a detail not shown here. Equal entries are not always repeated.

As usually defined, the MIC is the smallest concentration in the dilution series that meets the test's criterion for growth inhibition. Higher therefore signals a need for much substance. With `CC[C@H](C)[C@H](NC(=O)[C@H](CCCCN)NC(=O)[C@H](CC(N)=O)NC(=O)[C@H](CCCCN)NC(=O)[C@H](CC(C)C)NC(=O)[C@H](Cc1ccc(O)cc1)NC(=O)[C@H](CCC(N)=O)NC(=O)[C@H](CCCN=C(N)N)NC(=O)[C@@H](NC(=O)[C@@H](NC(=O)[C@H](CCCCN)NC(=O)[C@H](CCCCN)NC(=O)[C@H](Cc1c[nH]c2ccccc12)NC(=O)[C@H](C)N)[C@@H](C)O)[C@@H](C)CC)C(=O)N[C@@H](CCCCN)C(=O)N[C@@H](CCCCN)C(=O)N[C@@H](CCCCN)C(=O)NCC(=O)N[C@@H](CCCN=C(N)N)C(=O)N[C@@H](CCCCN)C(=O)N[C@@H](C)C(=O)N[C@H](C(=O)N[C@H](C(=O)N[C@@H](C)C(=O)N[C@@H](Cc1c[nH]c2ccccc12)C(=O)O)[C@@H](C)CC)C(C)C` [AWKKTIRQYLKNKIKKKGRKAVIAW], the minimum inhibitory concentration (MIC) is 8 µM (≈ 24.5 µg/mL) in [1]; 8 µM (≈ 24.5 µg/mL) in assay [2]; 1 µM (≈ 3.06 µg/mL) in assay [3]; 8 µM (≈ 24.5 µg/mL) in assay [4]; 10 µM (≈ 30.6 µg/mL) in [5].

For `CC[C@H](C)[C@H](NC(=O)[C@H](CCCCN)NC(=O)[C@H](CCCCN)NC(=O)[C@H](Cc1ccccc1)NC(=O)[C@H](CC(C)C)NC(=O)[C@H](CCCCN)NC(=O)[C@H](Cc1c[nH]c2ccccc12)NC(=O)[C@H](CCCCN)NC(=O)[C@H](Cc1cnc[nH]1)NC(=O)CNC(=O)CN)C(=O)NCC(=O)N[C@@H](C)C(=O)N[C@H](C(=O)N[C@@H](CC(C)C)C(=O)N[C@@H](CCCCN)C(=O)N[C@H](C(=O)N[C@@H](CC(C)C)C(=O)O)C(C)C)C(C)C` [GGHKWKLFKKIGAVLKVL], the MIC was 4 µM (≈ 8.09 µg/mL) in [6], 8 µM (≈ 16.2 µg/mL) in [7], 8 µM (≈ 16.2 µg/mL) in assay [8] and at least 32 µM in assay [9].

Regarding `CC[C@H](C)[C@H](NC(=O)[C@H](CCSC)NC(=O)[C@H](C)NC(=O)[C@@H]1CCCN1C(=O)[C@@H](NC(=O)[C@@H]1CCCN1C(=O)[C@H](CCCCN)NC(=O)[C@@H](NC(=O)[C@H](CC(C)C)NC(=O)CNC(=O)CNC(=O)[C@H](CC(C)C)NC(=O)[C@@H](N)Cc1ccccc1)[C@@H](C)CC)C(C)C)C(=O)N[C@H]1CSSC[C@@H](C(=O)O)NC(=O)[C@H](CCCCN)NC(=O)[C@H](CCCCN)NC(=O)[C@H](CCCN=C(N)N)NC(=O)[C@H](C(C)C)NC(=O)[C@H](C)NC1=O` [FLGGLIKPVPAMICAVRKKC], the MIC was at least 117 µM in assay [10]; at least 117 µM in assay [11]; over 117 µM in [6]; at least 117 µM in assay [12]; over 117 µM in assay [13]; over 117 µM in assay [14]. Besides, the minimal inhibitory concentration (MIC) is over 117 µM in assay [15], at least 117 µM in [16] and at least 117 µM in assay [17].

`CC[C@H](C)[C@H](NC(=O)[C@@H](NC(=O)[C@H](Cc1ccccc1)NC(=O)CNC(=O)[C@@H](NC(=O)[C@H](CC(N)=O)NC(=O)[C@H](C)N)C(C)C)C(C)C)C(=O)N[C@@H](CCC(N)=O)C(=O)N[C@@H](CC(C)C)C(=O)N[C@@H](CCC(N)=O)C(=O)N[C@@H](C)C(=O)N[C@@H](CCCN=C(N)N)C(=O)N[C@@H](CC(C)C)C(=O)N[C@@H](CCCN=C(N)N)C(=O)NCC(=O)N[C@@H](Cc1ccccc1)C(=O)N[C@@H](CC(C)C)C(=O)N[C@H](C(=O)N[C@@H](CCCN=C(N)N)C(=O)N[C@@H](CCC(N)=O)C(=O)N[C@@H](CCCCN)C(=O)N[C@@H](Cc1ccccc1)C(=O)N[C@@H](C)C(=O)O)C(C)C` [ANVGFVIQLQARLRGFLVRQKFA]: the MIC in [6] is 1.71 µM (≈ 4.5 µg/mL); in assay [13] it was 1.71 µM (≈ 4.5 µg/mL); in assay [18], at least 95 µM.

For the molecule `CC[C@H](C)[C@H](NC(=O)[C@H](CC(C)C)NC(=O)CNC(=O)CNC(=O)[C@H](CC(C)C)NC(=O)[C@@H](N)Cc1ccccc1)C(=O)N[C@@H](CCCCN)C(=O)N[C@@H](Cc1c[nH]c2ccccc12)C(=O)N[C@@H](CCCCN)C(=O)N[C@@H](Cc1c[nH]c2ccccc12)C(=O)N1CCC[C@H]1C(=O)N[C@@H](Cc1c[nH]c2ccccc12)C(=O)N[C@@H](Cc1c[nH]c2ccccc12)C(=O)N1CCC[C@H]1C(=O)N[C@@H](Cc1c[nH]c2ccccc12)C(=O)N[C@@H](CCCN=C(N)N)C(=O)N[C@@H](CCCN=C(N)N)C(N)=O` [FLGGLIKWKWPWWPWRR], the minimum inhibitory concentration (MIC) in assay [10] was 13.5 µM (≈ 31.2 µg/mL); in [11] it was at least 108 µM; in assay [6], 3.38 µM (≈ 7.81 µg/mL); in assay [12] it was 13.5 µM (≈ 31.2 µg/mL); in assay [13] it was 3.38 µM (≈ 7.81 µg/mL); in assay [14], 3.38 µM (≈ 7.81 µg/mL). Besides, the minimal inhibitory concentration (MIC) in assay [15] is over 108 µM; in assay [16], 3.38 µM (≈ 7.81 µg/mL); in assay [17] it was at least 108 µM.

As to `CC[C@H](C)[C@H](NC(=O)[C@H](CCCCN)NC(=O)[C@H](CC(N)=O)NC(=O)[C@H](CCCCN)NC(=O)[C@H](CC(C)C)NC(=O)[C@H](Cc1ccc(O)cc1)NC(=O)[C@H](CCC(N)=O)NC(=O)[C@H](CCCN=C(N)N)NC(=O)[C@@H](NC(=O)[C@@H](NC(=O)[C@H](CCCCN)NC(=O)[C@H](CCCCN)NC(=O)[C@H](Cc1c[nH]c2ccccc12)NC(=O)[C@H](C)N)[C@@H](C)O)[C@@H](C)CC)C(=O)N[C@@H](CCCCN)C(=O)N[C@@H](CCCCN)C(=O)N[C@@H](CCCCN)C(=O)N[C@@H](Cc1c[nH]c2ccccc12)C(=O)N[C@@H](CCCN=C(N)N)C(=O)N[C@@H](CCCCN)C(=O)N[C@@H](C)C(=O)N[C@H](C(=O)N[C@H](C(=O)N[C@@H](C)C(=O)N[C@@H](Cc1c[nH]c2ccccc12)C(=O)O)[C@@H](C)CC)C(C)C` [AWKKTIRQYLKNKIKKKWRKAVIAW], the minimal inhibitory concentration (MIC) was 8 µM (≈ 25.5 µg/mL) in assay [1], 8 µM (≈ 25.5 µg/mL) in [2], 1 µM (≈ 3.19 µg/mL) in assay [3] and 4 µM (≈ 12.7 µg/mL) in assay [4].

Take `CC[C@H](C)[C@H](NC(=O)[C@H](CCCN=C(N)N)NC(=O)CNC(=O)[C@H](CC(C)C)NC(=O)[C@H](Cc1ccccc1)NC(=O)[C@H](CCCCN)NC(=O)[C@H](CO)NC(=O)[C@H](Cc1ccccc1)NC(=O)[C@H](Cc1c[nH]c2ccccc12)NC(=O)[C@H](CCCCN)NC(=O)[C@@H](NC(=O)[C@@H](N)Cc1ccccc1)C(C)C)C(=O)N[C@@H](CC(C)C)C(N)=O` [FVKWFSKFLGRIL]: the MIC in [19] amounted to 7.6 µM (≈ 12.5 µg/mL); in [20], 6 µM (≈ 9.84 µg/mL); in [21] it was 2 µM (≈ 3.28 µg/mL); in assay [22], 7.6 µM (≈ 12.5 µg/mL); in assay [23], 6.25 µM (≈ 10.3 µg/mL); in assay [24], 2 µM (≈ 3.28 µg/mL). The minimum inhibitory concentration (MIC) was 6.8 µM (≈ 11.2 µg/mL) in assay [25]; 3.8 µM (≈ 6.23 µg/mL) in assay [6]; 2 µM (≈ 3.28 µg/mL) in assay [26]; 3.8 µM and 7.6 µM in [13]; 3 µM (≈ 4.92 µg/mL) in assay [27]; 6 µM (≈ 9.84 µg/mL) in assay [28]. Moreover, the MIC in [29] and in [30] was 2 µM (≈ 3.28 µg/mL) in each case.
